# Assay results from patent publication US9072758B2, “Cyclic amide derivative” (MOCHIDA PHARMACEUTICAL CO., LTD., priority 2011, dated 2015).
# Molecular target: T1, GPR40 of human origin (Homo sapiens, UniProt O14842)
# T1 construct: expressed in transfected cells
# Assay: Agonist action on GPR40 of human origin (Ca2+ fluctuation in a CHO cell strain stably expressing GPR40)
# Format: cell-based
# Details: Calcium 4 Assay Kit, fluorescence intensity variation
# Method: A CHO cell strain stably expressing GPR40 of human origin was used to determine the agonist action of a title compound. This cell strain was seeded in a clear bottom 96 well plate at 2×10^4 cells/100 μL/well. The cell strain was cultured in a CO2 incubator overnight using a Ham's F-12 medium containing a 10% fetal bovine serum, 100 U/mL penicillin, 0.1 mg/mL streptomycin, and 400 μg/mL Geneticin. Calcium 4 Assay Kit (Molecular Devices) was used as a fluorescent calcium indicator. One mL of 77 mg/mL probenecid (Invitrogen) was added to 100 mL of a calcium indicator solution to prepare a solution (loading solution) mixed with a 20 mM HEPES-containing Hanks' balanced salt solution (HBSS) in equal proportions. To the cells from which the culture solution was removed, 200 μL of the loading solution was added, and the cells were cultured in a CO2 incubator for 1 hour. The title compound was diluted with a 20 mM HEPES-containing HBSS and was added to the cells by 50 μL, and the fluctuation of the Ca^2+ concentration was measured by an intracellular ion analyzer. The EC50 value of the title compound was calculated using the dose-response curve of fluorescence intensity variation.
# T1 sequence (O14842 whole entry): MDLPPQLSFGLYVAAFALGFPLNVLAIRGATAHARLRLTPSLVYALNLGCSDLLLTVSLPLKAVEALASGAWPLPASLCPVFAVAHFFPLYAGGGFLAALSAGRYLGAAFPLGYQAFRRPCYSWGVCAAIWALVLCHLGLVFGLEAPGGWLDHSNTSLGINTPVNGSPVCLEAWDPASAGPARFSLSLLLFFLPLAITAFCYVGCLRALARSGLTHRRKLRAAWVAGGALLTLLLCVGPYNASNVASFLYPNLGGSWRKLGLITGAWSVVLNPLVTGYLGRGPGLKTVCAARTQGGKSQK
row,EC50 [µM],Compound
1,< 0.3,"Cc1nc(OCCC(C)(C)O)ccc1-c1cccc2c1CC[C@H]2Oc1ccc(C2CC(=O)N[S+]2[O-])cc1 (single isomer, unassigned) [23(A)-a]"
2,< 0.3,"N#Cc1ccc(Oc2cccc3c2CC[C@H]3Oc2ccc(C3CC(=O)N[S+]3[O-])cc2)cc1 (single isomer, unassigned) [25(A)-b]"
3,< 0.3,"Cc1nc(OCCC(C)(C)O)ccc1Oc1cccc2c1CC[C@H]2Oc1ccc(C2CC(O)=N[S+]2[O-])cc1 (single isomer, unassigned) [51(A)-a]"
4,< 0.3,"Cc1nc(OCCC(C)(C)O)ccc1Oc1cccc2c1CC[C@H]2Oc1ccc(C2CC(O)=N[S+]2[O-])cc1 (single isomer, unassigned) [51(A)-b]"
5,< 0.3,"COc1ccc(Oc2cccc3c2CC[C@H]3Oc2ccc(C3CC(O)=N[S+]3[O-])cc2)cn1 (single isomer, unassigned) [52(A)-a]"
6,< 0.3,"COc1ccc(Oc2cccc3c2CC[C@H]3Oc2ccc(C3CC(O)=N[S+]3[O-])cc2)cn1 (single isomer, unassigned) [52(A)-b]"
7,< 0.3,"Cc1cccc(Oc2cccc3c2CC[C@H]3Oc2ccc(C3CC(O)=N[S+]3[O-])cc2)c1 (single isomer, unassigned) [53(A)-a]"
8,< 0.3,"Cc1cccc(Oc2cccc3c2CC[C@H]3Oc2ccc(C3CC(O)=N[S+]3[O-])cc2)c1 (single isomer, unassigned) [53(A)-b]"
9,< 0.3,"CCOCCOc1ccc(-c2cccc3c2CC[C@H]3Oc2ccc(C3CC(O)=N[S+]3[O-])cc2)c(C)n1 (single isomer, unassigned) [54(A)-a]"
10,< 0.3,"CCOCCOc1ccc(-c2cccc3c2CC[C@H]3Oc2ccc(C3CC(O)=N[S+]3[O-])cc2)c(C)n1 (single isomer, unassigned) [54(A)-b]"
11,< 0.3,"Cc1ncccc1Oc1cccc2c1CC[C@H]2Oc1ccc(C2CC(O)=N[S+]2[O-])cc1 (single isomer, unassigned) [55(A)-a]"
12,< 0.3,"Cc1ncccc1Oc1cccc2c1CC[C@H]2Oc1ccc(C2CC(O)=N[S+]2[O-])cc1 (single isomer, unassigned) [55(A)-b]"
13,< 0.3,"CCOCCOc1cc(C)c(-c2cccc3c2CC[C@H]3Oc2ccc(C3CC(O)=N[S+]3[O-])cc2)c(C)c1 (single isomer, unassigned) [Example 57]"
14,< 0.3,"CCOCCOc1cc(C)c(-c2cccc3c2CC[C@H]3Oc2ccc(C3CC(O)=N[S+]3[O-])cc2)c(C)c1 (single isomer, unassigned) [Example 58]"
15,< 0.3,"Cc1cc(OCCCS(C)(=O)=O)cc(C)c1-c1cccc2c1CC[C@H]2Oc1ccc(C2CC(=O)N[S+]2[O-])cc1 (single isomer, unassigned) [Example 59]"
16,< 0.3,"Cc1cccc(C)c1-c1cccc2c1CC[C@H]2Oc1ccc(C2CC(O)=N[S+]2[O-])cc1 (single isomer, unassigned) [Example 60]"
17,< 0.3,"COc1cc(C)c(-c2cccc3c2CC[C@H]3Oc2ccc(C3CC(O)=N[S+]3[O-])cc2)c(C)c1 (single isomer, unassigned) [Example 61]"
18,< 0.3,"Cc1nc(OCCCS(C)(=O)=O)ccc1-c1cccc2c1CC[C@H]2Oc1ccc(C2CC(O)=N[S+]2[O-])cc1 (single isomer, unassigned) [Example 62]"

row,EC50 [µM],Compound
1,< 0.3,"COc1ccc(-c2cccc3c2CC[C@H]3Oc2ccc(C3CC(O)=N[S+]3[O-])cc2)c(C)n1 (single isomer, unassigned) [Example 63]"
2,< 0.3,"[O-][S+]1N=C(O)CC1c1ccc(O[C@@H]2CCc3c(-c4ccccc4C(F)(F)F)cccc32)cc1 (single isomer, unassigned) [Example 64]"
3,< 0.3,"[O-][S+]1N=C(O)CC1c1ccc(O[C@@H]2CCc3c(-c4cccnc4C(F)(F)F)cccc32)cc1 (single isomer, unassigned) [Example 65]"
4,< 0.3,"Cc1ccccc1-c1cccc2c1CC[C@H]2Oc1ccc(C2CC(O)=N[S+]2[O-])cc1 (single isomer, unassigned) [Example 66]"
5,< 0.3,"Cc1ccc(F)cc1-c1cccc2c1CC[C@H]2Oc1ccc(C2CC(O)=N[S+]2[O-])cc1 (single isomer, unassigned) [Example 67]"
6,< 0.3,"COc1cccc(F)c1-c1cccc2c1CC[C@H]2Oc1ccc(C2CC(O)=N[S+]2[O-])cc1 (single isomer, unassigned) [Example 68]"
7,< 0.3,"CCOc1ccc(F)cc1-c1cccc2c1CC[C@H]2Oc1ccc(C2CC(O)=N[S+]2[O-])cc1 (single isomer, unassigned) [Example 69]"
8,< 0.3,"Cc1cccc(C)c1-c1cccc2c1CC[C@H]2Oc1ccc(C2CC(=O)NS(=O)(=O)C2)cc1 (stereo partly drawn) [Example 37, 5-(4-(((R)-4-(2,6-dimethylphenyl)-2,3-dihydro-1H-inden-1-yl)oxy)phenyl)-1,2-thiazinan-3-one 1,1-dioxide]"
9,< 0.3,"O=C1CC(c2ccc(O[C@@H]3CCc4c(-c5ccccc5C(F)(F)F)cccc43)cc2)CS(=O)(=O)N1 (stereo partly drawn) [Example 38, 5-(4-(((R)-4-(2-(trifluoromethyl)phenyl)-2,3-dihydro-1H-inden-1-yl)oxy)phenyl)-1,2-thiazinan-3-one 1,1-dioxide]"
10,< 0.3,"CCOCCOc1cc(C)c(-c2cccc3c2CC[C@H]3Oc2ccc(C3CC(=O)NS(=O)(=O)C3)cc2)c(C)c1 (stereo partly drawn) [Example 39, 5-(4-(((R)-4-(4-(2-ethoxyethoxy)-2,6-dimethylphenyl)-2,3-dihydro-1H-inden-1-yl)oxy)phenyl)-1,2-thiazinan-3-one 1,1-dioxide]"
11,< 0.3,"CCOCCOc1cc(C)c(-c2cccc3c2CC[C@H]3Oc2ccc(C3CC(=O)NS(=O)(=O)C3)cc2)c(C)c1 (stereo partly drawn) [Example 42, 5-(4-(((R)-4-(4-(2-ethoxyethoxy)-2,6-dimethylphenyl)-2,3-dihydro-1H-inden-1-yl)oxy)phenyl)-1,2-thiazinan-3-one 1,1-dioxide]"
12,< 0.3,"Cc1cccc(C)c1-c1cccc2c1CC[C@H]2Oc1ccc(C2CC(=O)NS(=O)(=O)C2)cc1 (stereo partly drawn) [Example 43, 5-(4-(((R)-4-(2,6-dimethylphenyl)-2,3-dihydro-1H-inden-1-yl)oxy)phenyl)-1,2-thiazinan-3-one 1,1-dioxide]"
13,< 0.3,"O=C1CC(c2ccc(O[C@@H]3CCc4c(-c5ccccc5C(F)(F)F)cccc43)cc2)CS(=O)(=O)N1 (stereo partly drawn) [Example 44, 5-(4-(((R)-4-(2-(trifluoromethyl)phenyl)-2,3-dihydro-1H-inden-1-yl)oxy)phenyl)-1,2-thiazinan-3-one 1,1-dioxide]"
14,< 0.3,"Cc1cc(OCCCS(C)(=O)=O)cc(C)c1-c1cccc2c1CC[C@H]2Oc1ccc(C2CC(=O)NS(=O)(=O)C2)cc1 (stereo partly drawn) [Example 45, 5-(4-(((R)-4-(2,6-dimethyl-4-(3-(methylsulfonyl)propoxy)phenyl)-2,3-dihydro-1H-inden-1-yl)oxy)phenyl)-1,2-thiazinan-3-one 1,1-dioxide]"
15,< 0.3,"COc1cc(C)c(-c2cccc3c2CC[C@H]3Oc2ccc(C3CC(=O)NS(=O)(=O)C3)cc2)c(C)c1 (stereo partly drawn) [Example 46, 5-(4-(((R)-4-(4-methoxy-2,6-dimethylphenyl)-2,3-dihydro-1H-inden-1-yl)oxy)phenyl)-1,2-thiazinan-3-one 1,1-dioxide]"
16,< 0.3,"O=C1CC(c2ccc(O[C@@H]3CCc4c(Oc5ccccc5)cccc43)cc2)CS(=O)(=O)N1 (stereo partly drawn) [Example 48, 5-(4-(((R)-4-phenoxy-2,3-dihydro-1H-inden-1-yl)oxy)phenyl)-1,2-thiazinan-3-one 1,1-dioxide]"
17,< 0.3,"O=C1CC(c2ccc(O[C@@H]3CCc4c(Oc5ccccc5)cccc43)cc2)CS(=O)(=O)N1 (stereo partly drawn) [Example 49, 5-(4-(((R)-4-phenoxy-2,3-dihydro-1H-inden-1-yl)oxy)phenyl)-1,2-thiazinan-3-one 1,1-dioxide (C)]"

row,Compound,EC50 [µM]
1,"Cc1nc(OCCC(C)(C)O)ccc1-c1cccc2c1CC[C@H]2Oc1ccc(C2CC(=O)NS(=O)(=O)C2)cc1 (stereo partly drawn) [Example 36, 5-(4-(((R)-4-(6-(3-hydroxy-3-methylbutoxy)-2-methylpyridin-3-yl)-2,3-dihydro-1H-inden-1-yl)oxy)phenyl)-1,2-thiazinan-3-one 1,1-dioxide]",< 0.3
2,"Cc1cc(O[C@@H]2CCc3c(-c4c(C)cc(OCCC(C)(C)O)cc4C)cccc32)ccc1C1CC(=O)NS(=O)(=O)C1 (stereo partly drawn) [Example 47, 5-(4-(((R)-4-(4-(3-hydroxy-3-methylbutoxy)-2,6-dimethylphenyl)-2,3-dihydro-1H-inden-1-yl)oxy)-2-methylphenyl)-1,2-thiazinan-3-one 1,1-dioxide]",< 0.3
